Test [1] concerns isolated rat hepatocytes. Nature of the test: Hepatic production of glucose, 20 h incubation. The test is classed as cell-based, Wistar rat. The conditions noted are these: for HGP % of ctrl @ 50 μM / HGP % of ctrl @ 100 μM: rat hepatocytes. As to the method: (§1) The hepatocytes are isolated from Wistar rat liver having fasted for 24 h after perfusion of collagenase in the portal vein. 1) The freshly isolated hepatocytes are sown in 6-well plates coated with collagen and containing an adhesion medium (Williams Medium). After adhesion, the medium is replaced with RPMI 1640 medium without any glucose, containing hydrocortisone (7·10^−5M) for a duration from 16 to 18 h. The next day, the glucose hepatic production test is conducted in a Krebs medium for 3 h. The basal conditions are cells incubated with only Krebs, the stimulated conditions are the cells placed in Krebs+lactate+pyruvate, the produced conditions are the cells exposed to chemical compounds in a Krebs/lactate/pyruvate medium. In the case when the compounds are dissolved in DMSO, all the conditions of the tests are met in the presence of a final concentration of 0.1% DMSO. The positive control of the test is the mercaptopicolinate known for its inhibitory action on hepatic production of glucose via the phosphoenolpyruvate carboxykinase. For short term treatments, the compounds are incubated for 3 h. For long term treatments, the compounds are incubated for 20 h at the moment when the hepatocytes are cultivated in RPMI and then added during the hepatic production test for 3 h. At the end of the 3 hours of incubation, the supernatant is recovered for measurement of glucose with a colorimetric method using glucose oxidase. The cells are lysed with a 0.1% NaOH aqueous solution in order to measure the amount of protein with the Lowry method. The results are expressed in mmol of glucose per mg of protein.

In another test the test system is INS-1 cells. The experiment in a line: Stimulation test of insulin secretion by INS-1 cells. The test is classed as cell-based. Particulars: Rattus norvegicus, INS1, 1 h, insulin secretion by INS-1 cells in response to glucose; for insulin secretion, % of control at 10 µM: read-out: HGP % of ctrl @ 10 μM; for insulin secretion, % of control at 50 µM: read-out: HGP % of ctrl @ 50 μM. Here is the method: The different compounds were tested on an INS-1 beta-pancreatic line in order to evaluate their capability of potentializing the insulin secretion in response to glucose. Very briefly, the cells are cultivated in a culture medium, RPMI 1640 with 10 mM glucose containing 1 mM of sodium pyruvate, 50 μM of 2-mercaptoethanol, 2 mM of glutamine, 10 mM of HEPES, 100 IU/ml of penicillin, 100 μg/ml of streptomycin and 10% of inactivated fetal calf serum, as described by Asfari et al.. For the insulin secretion test, the INS-1 cells are sown and cultivated in 96-well plates. After 3 days of cultivation at 37° C. in a humid atmosphere (95% air/5% CO2), the medium is removed and the cells are incubated for 16 h in a medium containing 5 mM of glucose and 1% of inactivated fetal calf serum. On the day of the test, the cells are washed with a Krebs buffer (pH 7.4) containing 0.1% of bovine albumin and then pre-incubated for 30 min at 37° C. in this same buffer containing 2.8 mM of glucose. Finally, the cells are again washed with Krebs buffer and then incubated for 1 h in the buffer of the secretion test (Krebs, pH 7.4 containing 0.1% of bovine albumin and 3.5 mM of glucose and molecules to be evaluated). At the end of the test, the cell supernatant is recovered in order to measure therein the secreted insulin, by means of an ELISA kit using a rat anti-insulin antibody (ELISA Alpco Cat no. 80-INSRTH-E10). Each condition is tested in triplicate. The 3.5 mM glucose, the 10^−7M GLP-1 and the Forskoline 10^−7/IBMX 10^−5M mixtures are used as positive controls of the test. A compound stimulates the secretion of insulin if this factor is greater than or equal to 130% of the control for a given glucose dose.

Test [2] concerns isolated rat hepatocytes. Nature of the test: Hepatic production of glucose, 3 h incubation. The test is classed as cell-based, Wistar rat. Particulars: for activity at 50 µM / activity at 100 µM: Hepatocyte, rat hepatocytes; for activity at 50 µM: read-out: HGP % of ctrl @ 50 μM; for activity at 100 µM: read-out: HGP % of ctrl @ 100 μM. Here is the method:
as §1

The structures appear in SMILES notation.

Take `CCONC(=O)COCc1nc2ccccn2c1C#Cc1ccc(F)cc1` [Derivative 58, N-ethoxy-2-((3-((4-fluorophenyl)ethynyl)imidazo [1,2-a]pyridin-2-yl)methoxy) acetamide]: in the test with isolated rat hepatocytes [1], the “inhibition of hepatic production of glucose” value (“inhibition” below) is on record as “strongest inhibitions”, the “HGP % of ctrl @ 50 μM” value is given as 32 % of ctrl and the “HGP % of ctrl @ 100 μM” value is 17 % of ctrl. Also, in the test with INS-1 cells, the insulin secretion, % of control at 10 µM is 127% and the insulin secretion, % of control at 50 µM turned out to be 233%.

As for `O=C([O-])COCc1nc2ccccn2c1C#Cc1ccc(F)cc1.[Na+]` [Derivative 46, sodium 2-((3-((4-fluorophenyl)-ethynyl)imidazo[1,2-a]pyridin-2-yl)methoxy)acetate], in the test on isolated rat hepatocytes [1], the “HGP % of ctrl @ 50 μM” value is 93 % of ctrl and the “HGP % of ctrl @ 100 μM” value is 52 % of ctrl. In the test on isolated rat hepatocytes [2], the activity at 50 µM turned out to be 85% and the activity at 100 µM worked out at 69%.

As to `O=C(O)CSCc1nc2ccc(Cl)cn2c1C#Cc1ccc(F)cc1` [Derivative 117, 2-[[6-chloro-3-[2-(4-fluorophenyl)ethynyl]imidazo [1,2-a]pyridin-2-yl]methylsulfanyl]acetic acid], in the test on INS-1 cells, the insulin secretion, % of control at 10 µM came to 130% and the insulin secretion, % of control at 50 µM is 137%. In addition, in the test with isolated rat hepatocytes [2], the activity at 50 µM was determined as 55% and the activity at 100 µM is 43%. Further, the “inhibition” value with isolated rat hepatocytes [2] (with two doses) is listed as “strongest inhibitions”.

Regarding `COC(=O)c1ccccc1OCc1nc2ccccn2c1C#Cc1cccc(C#N)c1` [Derivative 79, methyl 2-((3-((3-cyanophenyl)-ethynyl)imidazo[1,2-a]pyridin-2-yl)methoxy)benzoate], in the test with INS-1 cells, the insulin secretion, % of control at 10 µM was found to be 128% and the insulin secretion, % of control at 50 µM came out at 152%. In addition, in the test on isolated rat hepatocytes [2], the activity at 50 µM came to 86% and the activity at 100 µM came out at 74%.

Regarding `CCOC(=O)COCc1nc2ccccn2c1C#Cc1ccccc1F` [Derivative 25, ethyl 2-((3-((2-fluorophenyl)-ethynyl)imidazo[1,2-a]pyridin-2-yl)methoxy)acetate], in the test with INS-1 cells, the insulin secretion, % of control at 10 µM stood at 134% and the insulin secretion, % of control at 50 µM stood at 226%. For the same compound, in the test with isolated rat hepatocytes [2], the activity at 50 µM came out at 83% and the activity at 100 µM turned out to be 73%.

In the case of `CCOC(=O)COCc1nc2ccccn2c1C#Cc1cccc(OC)c1` [Derivative 12, ethyl 2-((3-((3-methoxyphenyl)-ethynyl)imidazo[1,2-a]pyridin-2-yl)methoxy)acetate], in the test with isolated rat hepatocytes [1], the “HGP % of ctrl @ 50 μM” value is listed as 89 % of ctrl and the “HGP % of ctrl @ 100 μM” value was 54 % of ctrl. Moreover, in the test on INS-1 cells, the insulin secretion, % of control at 10 µM stood at 123% and the insulin secretion, % of control at 50 µM stood at 204%.

On to `CCOC(=O)COCc1nc2ccccn2c1C#Cc1ccc(F)cc1` [Derivative 3, ethyl 2-((3-((4-fluorophenyl)-ethynyl)imidazo[1,2-a]pyridin-2-yl)methoxy)acetate], for which, in the test on INS-1 cells, the insulin secretion, % of control at 10 µM was determined as 130% and the insulin secretion, % of control at 50 µM is 472%. In the test on isolated rat hepatocytes [2], the activity at 50 µM stood at 73% and the activity at 100 µM was 60%.

In the case of `CCOC(=O)COCc1nc2ccccn2c1C#Cc1ccccc1` [Derivative 1, ethyl 2-((3-(phenylethynyl)-imidazo[1,2-a]pyridin-2-yl)-methoxy)acetate], in the test with INS-1 cells, the insulin secretion, % of control at 10 µM came to 121% and the insulin secretion, % of control at 50 µM amounted to 211%. In the test with isolated rat hepatocytes [2], the activity at 50 µM came to 70% and the activity at 100 µM worked out at 56%.

Take `O=C(COCc1nc2ccccn2c1C#Cc1ccc(F)cc1)NO` [Derivative 59, 2-((3-((4-fluorophenyl)ethynyl)-imidazo[1,2-a]pyridin-2-yl)methoxy)-N-hydroxy acetamide]: in the test with INS-1 cells, the insulin secretion, % of control at 10 µM worked out at 134% and the insulin secretion, % of control at 50 µM turned out to be 220%. In the test on isolated rat hepatocytes [2], the activity at 50 µM was 97% and the activity at 100 µM came to 45%. Besides, in the test on isolated rat hepatocytes [2] (dose of 100 μM), the “inhibition” value is reported as “strongest inhibitions”.

Regarding `COC(=O)c1ccccc1OCc1nc2ccccn2c1C#Cc1ccc(F)cc1` [Derivative 76, methyl 2-((3-((4-fluorophenyl)-ethynyl)imidazo[1,2-a]pyridin-2-yl)methoxy)benzoate], in the test on INS-1 cells, the insulin secretion, % of control at 10 µM is 156% and the insulin secretion, % of control at 50 µM is 202%. Further, in the test on isolated rat hepatocytes [2], the activity at 50 µM turned out to be 67% and the activity at 100 µM came out at 59%. The “inhibition” value in the test with isolated rat hepatocytes [2] (dose of 100 μM) is “strongest inhibitions”.

For the compound `CCOC(=O)CSCc1nc2ccc(Cl)cn2c1C#Cc1ccc(F)cc1` [Derivative 110, ethyl 2-[[6-chloro-3-[2-[4-(fluoro)-phenyl]ethynyl]imidazo[1,2-a]pyridin-2-yl]methylsulfanyl]acetate], in the test with INS-1 cells, the insulin secretion, % of control at 10 µM stood at 162% and the insulin secretion, % of control at 50 µM was 140%. Further, in the test with isolated rat hepatocytes [2], the activity at 50 µM amounted to 50% and the activity at 100 µM is 37%. For the same compound, the “inhibition” value with isolated rat hepatocytes [2] (with two doses) is listed as “strongest inhibitions”.

On to `COC(=O)c1ccccc1OCc1nc2ccccn2c1C#Cc1ccccc1` [Derivative 78, methyl 2-((3-(phenylethynyl)-imidazo[1,2-a]pyridin-2-yl)methoxy)benzoate], for which, in the test with INS-1 cells, the insulin secretion, % of control at 10 µM was determined as 197% and the insulin secretion, % of control at 50 µM amounted to 152%. For the same compound, in the test with isolated rat hepatocytes [2], the activity at 50 µM turned out to be 51% and the activity at 100 µM turned out to be 44%. In addition, the “inhibition” value in the test on isolated rat hepatocytes [2] (with two doses) is “strongest inhibitions”.

For `CCOC(=O)CSCc1nc2ccc(Cl)cn2c1C#Cc1cccc(OC(F)(F)F)c1` [Derivative 112, ethyl 2-[[6-chloro-3-[2-[3-(trifluoromethoxy)phenyl]ethynyl]imidazo[1,2-a]pyridin-2-yl]methylsulfanyl]acetate], in the test on INS-1 cells, the insulin secretion, % of control at 10 µM worked out at 150% and the insulin secretion, % of control at 50 µM worked out at 256%. For the same compound, in the test with isolated rat hepatocytes [2], the activity at 50 µM was determined as 65% and the activity at 100 µM is 26%. In addition, the “inhibition” value in the test with isolated rat hepatocytes [2] (dose of 100 μM) is recorded as “strongest inhibitions”.

For the origin of these results see patent US9381191B2, “Imidazopyridine derivatives useful in treating diabetes” (METABRAIN RESEARCH, priority 2012, dated 2016).
